Measurements reported in patent publication US6376521B1, “A3 adenosine receptor antagonists” (The United States of America as represented by the …, priority 1998, dated 2002).
Where two headings read alike, the source gives them in different places.

Tests used:
[1] = target: T1, A2A adenosine receptors (Rattus norvegicus, UniProt P30543); conditions: Table 3, cited from earlier work; for Ki: compounds 59, 68, values taken from van Rhee et al. 1996 and Jiang et al. 1997, read-out: rA2A Ki ± S.E.M.
T1 construct: from tissue
T1 sequence (P30543 whole entry): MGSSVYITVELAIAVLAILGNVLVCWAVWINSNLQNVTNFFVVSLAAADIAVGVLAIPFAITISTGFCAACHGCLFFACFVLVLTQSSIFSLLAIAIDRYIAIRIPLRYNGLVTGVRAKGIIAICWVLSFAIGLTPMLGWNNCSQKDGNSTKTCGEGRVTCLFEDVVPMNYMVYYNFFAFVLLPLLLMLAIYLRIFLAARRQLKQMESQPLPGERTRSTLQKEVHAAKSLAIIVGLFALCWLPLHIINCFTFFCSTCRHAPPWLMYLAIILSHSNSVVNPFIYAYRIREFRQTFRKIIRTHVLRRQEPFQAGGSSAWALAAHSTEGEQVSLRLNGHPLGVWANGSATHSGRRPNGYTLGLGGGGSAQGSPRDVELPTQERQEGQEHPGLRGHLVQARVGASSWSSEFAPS

[2] = target: T2, A1 adenosine receptors (Rattus norvegicus, UniProt P25099); test: Displacement of specific [3H]R-PIA binding in rat brain membranes; conditions: for Ki: Table 2, compounds 33-58, [3H]R-PIA, rat brain membranes, n = 3-5, read-out: rA1 Ki ± S.E.M.
T2 construct: from tissue
T2 sequence (P25099 1-326): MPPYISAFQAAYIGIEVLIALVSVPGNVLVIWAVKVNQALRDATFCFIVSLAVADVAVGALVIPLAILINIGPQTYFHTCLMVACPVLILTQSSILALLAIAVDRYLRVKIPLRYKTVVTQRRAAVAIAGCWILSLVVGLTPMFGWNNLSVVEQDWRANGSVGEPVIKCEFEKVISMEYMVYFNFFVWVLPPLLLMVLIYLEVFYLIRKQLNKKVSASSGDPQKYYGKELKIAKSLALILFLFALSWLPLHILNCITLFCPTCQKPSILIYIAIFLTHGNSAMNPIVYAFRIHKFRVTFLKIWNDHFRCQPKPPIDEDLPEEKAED

[3] = target: T1, A2A adenosine receptors; test: Displacement of specific [3H]CGS 21680 binding in rat striatal membranes; conditions: for Ki: [3H]CGS 21680, rat striatal membranes, n = 3-6, read-out: rA2A Ki ± S.E.M.
[4] = target: T3, human A3 receptors (Homo sapiens, UniProt P0DMS8); test: Displacement of specific [125I]AB-MECA binding at human A3 receptors expressed in HEK cells, in membranes; conditions: for Ki: [125I]AB-MECA, HEK cell membranes, n = 3-4, read-out: hA3 Ki ± S.E.M.; for rA1/hA3: ratio of affinities rat A1 vs human A3
T3 construct: expressed in transfected cells
T3 sequence (P0DMS8 1-318): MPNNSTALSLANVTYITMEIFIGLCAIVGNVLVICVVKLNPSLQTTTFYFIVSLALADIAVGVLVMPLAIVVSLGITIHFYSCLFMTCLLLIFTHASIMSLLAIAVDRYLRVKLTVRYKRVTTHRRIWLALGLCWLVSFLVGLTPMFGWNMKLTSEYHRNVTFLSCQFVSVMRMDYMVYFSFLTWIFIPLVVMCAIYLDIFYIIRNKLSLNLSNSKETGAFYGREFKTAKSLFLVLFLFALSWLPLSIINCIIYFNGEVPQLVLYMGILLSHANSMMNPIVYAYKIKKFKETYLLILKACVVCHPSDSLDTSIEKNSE

[5] = target: T4, rat A3 receptors (Rattus norvegicus, UniProt P28647); test: Displacement of specific [125I]AB-MECA binding at rat A3 receptors stably expressed in CHO cells; conditions: for Ki / rA3/hA3 / rA1/rA3: Table 4; for Ki: [125I]AB-MECA, CHO cells, n = 3-5, read-out: rA3 Ki; for rA3/hA3: ratio of affinities at rat vs. human A3 receptors; for rA1/rA3: ratio of affinities rat A1 vs rat A3
T4 construct: expressed in transfected cells
T4 sequence (P28647 1-320): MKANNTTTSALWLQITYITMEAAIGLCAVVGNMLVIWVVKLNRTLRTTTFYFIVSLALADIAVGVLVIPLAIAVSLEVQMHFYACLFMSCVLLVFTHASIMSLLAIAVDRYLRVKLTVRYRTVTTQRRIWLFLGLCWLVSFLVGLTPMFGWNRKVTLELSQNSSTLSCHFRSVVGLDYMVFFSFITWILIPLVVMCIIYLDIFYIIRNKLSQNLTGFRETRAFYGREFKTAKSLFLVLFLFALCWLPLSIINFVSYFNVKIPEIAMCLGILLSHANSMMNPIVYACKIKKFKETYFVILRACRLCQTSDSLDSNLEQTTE

Row | SMILES | Ki [2] [nM] | Ki ([3]; Table 2, compounds 33-58) [nM] | Ki ([4]; Table 2, compounds 33-58) [nM] | rA1/hA3 ([4]; Table 2) | Ki [5] [nM] | rA3/hA3 [5] | rA1/rA3 [5] | also measured
1 | CCOC(=O)C1=C(C)NC(c2ccccc2)=C(C(=O)OCC)C1C=Cc1ccccc1 (stereo not drawn) [Compound 68] |  |  |  |  |  |  |  | Ki [1]: 4770 ± 290 nM
2 | CCOC(=O)C1=C(C)NC(c2ccccc2)=C(C(=O)OCC)C1C (stereo not drawn) [Compound 59] |  |  |  |  |  |  |  | Ki [1]: 35900 ± 15300 nM
3 | CCCc1nc(-c2ccccc2)c(C(=O)OCC)c(CC)c1C(=O)SCC [Compound 55, 5-Ethyl 2-propyl-4-ethyl-3-(ethylsulfanylcarbonyl)-6-phenylpyridine-5-carboxylate] | 16700 ± 3000 | 2820 ± 820 | 33.3 ± 10.7 | 500 | 590 ± 40 | 18 | 28 | 
4 | CCCOC(=O)c1c(-c2ccccc2)nc(CC)c(C(=O)SCC)c1CCC [Compound 49b, 5-Propyl 2-ethyl-4-propyl-3-(ethylsulfanylcarbonyl)-6-phenylpyridine-5-carboxylate] | 18200 ± 9000 |  | 24.5 ± 4 | 7400 | 113 ± 12 | 6.0 | 140 | rA2A displacement of specific binding (class d) ([3]; Table 2, at 10^−4 M): d (10^−4) (Displacement of <10% of specific binding at the indicated concentration (M).); affinity at rat and human A3 receptors (in words) ([5]; both species): high affinity at both species
5 | CCOC(=O)C1=C(C)NC(c2ccccc2)=C(C(=O)OCc2ccccc2)C1C#Cc1ccccc1 (stereo not drawn) [Compound 69] |  |  |  |  |  |  |  | rA2A displacement of specific binding (class d) ([1]; at 10^−4 M, compound 69, value taken from the literature): d (10^−4) (Displacement of < 10% of specific binding at the indicated concentration (M).)
6 | CCSC(=O)c1c(C)nc(-c2ccccc2)c(C(=O)OCc2ccccc2)c1CC [Compound 39, 5-Benzyl 2-methyl-4-ethyl-3-(ethylsulfanylcarbonyl)-6-phenylpyridine-5-carboxylate] |  | 12800 ± 2900 | 2610 ± 960 | >40 | 1800 ± 320 | 0.69 | >50 | rA1 percentage of specific binding displaced ([2]; Table 2, at 10^−4 M): 20 ± 8% (10^−4)
7 | CCSC(=O)c1c(CC)nc(-c2ccccc2)c(C(=O)OCCO)c1CC [Compound 50, 5-Hydroxylethyl 2,4-diethyl-3-(ethylsulfanylcarbonyl)-6-phenylpyridine-5-carboxylate] | 17400 ± 5290 | 10000 ± 3000 | 188 ± 61 | 93 | 2870 ± 480 | 15 | 6.1 | 
8 | CCSC(=O)C1=C(C)NC(c2ccccc2)=C(C(=O)OCc2ccccc2)C1CC (racemic) [Compound 65, 5-Benzyl 2-methyl-4ethyl-6-phenyl-3-(ethylsulfanylcarbonyl)-1,4-(±)-dihydropyridine-5-carboxylate] |  |  |  |  | 2800 ± 280 | 1.7 | >20 | inhibition at 100 µM ([2]; Table 3, at 10^−4 M, read-out: rA1 % inhibition (percentage of specific binding displaced)): 45 ± 2%; Ki ([3]; Table 3): 14300 ± 4200 nM; Ki ([4]; Table 3): 1650 ± 400 nM; rA1/hA3 ([4]; Table 3): >50
